Bridge positions count the residues as written; N and C are the ends. Square brackets hold non-standard residues; d marks the D form. Peptide text beside a SMILES is read from it. * marks the point of attachment. DO3A(CH2CH2SO2CH2CH2) = O=C(O)CN1CCN(CCS(=O)(=O)CC*)CCN(CC(=O)O)CCN(CC(=O)O)CC1; Ala(4-thiazolyl) = N[C@@H](Cc1cscn1)C(=O)O
System: cynomolgus monkey GCGR
Assay: functional cAMP assay in transfected HEK293 cells
Format: cell-based
Method: The same assay was performed for GLP-1R to assess cross-binding. Details of the assay procedure are described in Additional file 1 and have also been described elsewhere.
cAMP content of cells was determined using a kit from Cisbio Corp. (cat. no. 62AM4PEJ) based on HTRF (Homogenous Time Resolved Fluorescence). For preparation, cells were split into T175 culture flasks and grown overnight to near confluency in medium (DMEM / 10% FBS). Medium was then removed and cells washed with PBS lacking calcium and magnesium, followed by proteinase treatment with accutase (Sigma-Aldrich cat. no. A6964). Detached cells were washed and resuspended in assay buffer (1 x HBSS; 20 mM HEPES, 0.1% BSA, 2 mM IBMX) and cellular density determined. They were then diluted to 400000 cells/ml and 25 µl-aliquots dispensed into the wells of 96-well plates. For measurement, 25 µl of test compound in assay buffer was added to the wells, followed by incubation for 30 minutes at room temperature.

CC[C@H](C)[C@H](NC(=O)[C@H](Cc1ccccc1)NC(=O)[C@H](CCC(=O)O)NC(=O)[C@@H]1CCCCNC(=O)CC[C@H](NC(=O)[C@H](CC(=O)O)NC(=O)[C@H](CC(C)C)NC(=O)[C@H](CCC(N)=O)NC(=O)[C@H](CCCCN)NC(=O)[C@H](CO)NC(=O)[C@H](Cc2ccc(O)cc2)NC(=O)[C@H](CC(=O)O)NC(=O)[C@H](CO)NC(=O)[C@@H](NC(=O)[C@H](Cc2ccccc2)NC(=O)[C@@H](NC(=O)CNC(=O)[C@H](CCC(N)=O)NC(=O)[C@@H](CO)NC(=O)[C@@H](N)Cc2cscn2)[C@@H](C)O)[C@@H](C)O)C(=O)N[C@@H](CCC(N)=O)C(=O)N[C@@H](CCCNC(=N)N)C(=O)N[C@@H](C)C(=O)N1)C(=O)N[C@@H](CCC(=O)O)C(=O)N[C@@H](Cc1c[nH]c2ccccc12)C(=O)N[C@@H](CC(C)C)C(=O)N[C@@H](CC(C)C)C(=O)N[C@@H](C)C(=O)N[C@H](C(=O)NCC(=O)N1CCC[C@H]1C(=O)N[C@@H](CCC(=O)O)C(=O)N[C@@H](CO)C(=O)NCC(=O)N[C@@H](C)C(=O)N1CCC[C@H]1C(=O)N1CCC[C@H]1C(=O)N1CCC[C@H]1C(=O)N[C@@H](CO)C(=O)N[C@@H](CSCCS(=O)(=O)CCN1CCN(CC(=O)O)CCN(CC(=O)O)CCN(CC(=O)O)CC1)C(N)=O)[C@@H](C)O [DO3A-S01-GCG] (H-[Ala(4-thiazolyl)][dS]QGTFTSDYSKQLDEQRAKEFIEWLLATGPESGAPPPSC(DO3A(CH2CH2SO2CH2CH2))-NH2; lactam 16-20)
EC50: 1.2 pM

Source: PMC6377692 (EJNMMI Research, 2019)
